{"source": "paper PMC6882492", "about": "“Synthesis and biological evaluation of novel thienopyrimidine derivatives as diacylglycerol acyltransferase 1 (DGAT-1) inhibitors” (Journal of Enzyme Inhibition and Medicinal Chemistry, 2019)", "key": {"hDGAT2": {"molecular_target": "T1, hDGAT2 (Homo sapiens, UniProt Q96PD7)", "T1 sequence (Q96PD7 1-388)": "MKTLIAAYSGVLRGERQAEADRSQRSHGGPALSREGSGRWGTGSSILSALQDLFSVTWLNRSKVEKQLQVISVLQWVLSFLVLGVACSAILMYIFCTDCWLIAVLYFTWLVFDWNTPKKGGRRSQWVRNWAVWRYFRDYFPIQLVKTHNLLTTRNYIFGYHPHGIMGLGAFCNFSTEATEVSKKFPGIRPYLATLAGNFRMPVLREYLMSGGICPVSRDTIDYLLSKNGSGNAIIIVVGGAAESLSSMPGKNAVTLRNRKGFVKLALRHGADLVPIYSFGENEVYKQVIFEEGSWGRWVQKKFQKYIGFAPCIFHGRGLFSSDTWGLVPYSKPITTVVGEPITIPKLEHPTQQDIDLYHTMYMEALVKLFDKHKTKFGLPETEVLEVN", "experiment": "Enzymatic assay hDGAT2", "assay_type": "biochemical", "from_the_text": "(§1) ACATs have sequence homology to DGAT-1 and play essential roles in cholesterol homeostasis. 17b was not explored in the enzymatic assays due to its poor pharmacokinetic profile."}, "hDGAT1": {"molecular_target": "T2, hDGAT1 (Homo sapiens, UniProt O75907)", "T2 sequence (O75907 1-488)": "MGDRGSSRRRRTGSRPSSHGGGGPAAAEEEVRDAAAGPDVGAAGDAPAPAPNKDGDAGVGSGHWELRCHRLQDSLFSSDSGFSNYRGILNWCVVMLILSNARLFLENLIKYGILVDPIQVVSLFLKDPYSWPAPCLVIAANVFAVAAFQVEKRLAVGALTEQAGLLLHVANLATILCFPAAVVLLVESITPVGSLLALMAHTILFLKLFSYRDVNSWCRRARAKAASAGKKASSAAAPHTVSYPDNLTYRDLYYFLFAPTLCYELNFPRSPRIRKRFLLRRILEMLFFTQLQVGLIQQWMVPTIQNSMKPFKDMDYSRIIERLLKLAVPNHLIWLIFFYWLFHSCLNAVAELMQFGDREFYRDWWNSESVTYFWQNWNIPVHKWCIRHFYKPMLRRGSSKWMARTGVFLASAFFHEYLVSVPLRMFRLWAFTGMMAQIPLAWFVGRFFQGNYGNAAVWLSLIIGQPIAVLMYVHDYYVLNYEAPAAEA", "experiment": "Enzymatic assay hDGAT1", "assay_type": "biochemical", "from_the_text": "as §1"}, "plasma TAG level": {"test_system": "plasma TAG level", "experiment": "Oral lipid tolerance test (OLTT), mouse", "assay_type": "in vivo", "conditions": "ICR mice, 17a 3 mg/kg po before corn oil, n = 5", "description": "Male, Institute of Cancer Research (ICR) mice were obtained from OrientBio Inc. (Republic of Korea). ICR mice (8-weeks old, n = 5/group) fasted 16 h, received 5 mL/kg corn oil via oral administration (p.o.) 30 min after compound administration. Plasma was collected at different time points (0, 1, 2, and 4 h).\nTo determine in vivo efficacy, we evaluated the activity of 17a against serum TAG level induced by the oral administration of corn oil (oral lipid tolerance test, OLTT; Figures 3 and 4), since intestinal targeted DGAT-1 inhibition results in a reduced serum TAG level. 17a was orally administered to ICR mice at 3 mg/kg or to dogs at 1 mg/kg before administration of corn oil.\nFigure 3. Effect of 17a in the oral lipid tolerance test (n = 5, ***p < .001). Serum TG (or TAG) concentration was measured before and 1, 2, and 4 h after oral administration of corn oil in ICR mice treated with 17a (3 mg/kg) or 2 (1 mg/kg). Vehicle for 2: 0.5% methylcellulose/0.5% Tween80 in distilled water, vehicle for 17a: 0.5% Tween80 in distilled water."}}}
{"smiles": "O=C([O-])C[C@H]1CC[C@@H](c2csc3c(-c4ccc(NC(=O)Nc5cccc(Cl)c5)cc4)ncnc32)CC1.[Na+]", "note": "[Compound 17a, Sodium cis-2–(4–(4-(4-(3–(3-chlorophenyl)ureido)phenyl)thieno[3,2-d]pyrimidin-7-yl)cyclohexyl)acetate]", "values": [{"measurement": "IC50", "setting": "hDGAT2", "value": "> 10", "unit": "µM"}, {"measurement": "IC50", "setting": "hDGAT1", "value": 0.061, "unit": "µM"}, {"measurement": "Reduction of plasma TAG level in OLTT", "setting": "plasma TAG level", "value": "significant activity, as potent as compound 2"}]}
